Literature values in patent publication US20040214804A1, “Combination of an aldosterone receptor antagonist and an anti-obesity agent” (Pharmacia Corporation, priority 2003, published 2004).

Key:
[1] = system: dietary-induced obesity in dogs; settings: during development of dietary-induced obesity
[2] = system: severe heart failure patients; settings: left ventricular ejection fraction no more than 35%, on standard therapy (ACE inhibitor, loop diuretic, in some cases digoxin)

| SMILES | glomerular hyperfiltration associated with chronic dietary-induced obesity [1] | hypertension associated with chronic dietary-induced obesity [1] | sodium retention associated with chronic dietary-induced obesity [1] | incidence of hospitalization relative to placebo-treated subjects [2] | mortality relative to placebo-treated subjects [2] |
| --- | --- | --- | --- | --- | --- |
| COC(=O)[C@@H]1CC2=CC(=O)CC[C@]2(C)[C@@]23O[C@@H]2C[C@@]2(C)[C@@H](CC[C@@]24CCC(=O)O4)[C@H]13 [Eplerenone, Pregn-4-ene-7,21-dicarboxylic acid, 9,11-epoxy-17-hydroxy-3-oxo-,γ-lactone, methyl ester, (7α,11α,17β)-] | markedly attenuated | markedly attenuated | markedly attenuated | – | – |
| CC(=O)S[C@@H]1CC2=CC(=O)CCC2(C)C2CC[C@]3(C)[C@@H](CC[C@@]34CCC(=O)O4)C21 (stereo partly drawn) [spironolactone, 17-hydroxy-7α-mercapto-3-oxo-17α-pregn-4-ene-21-carboxylic acid γ-lactone acetate] | – | – | – | statistically significant reduction | statistically significant reduction |
